{"source": "patent US12019075B2", "about": "“Zwitterionic nanoparticles” (FRAUNHOFER-GESELLSCHAFT ZUR FOERDERUNG DER ANGEWANDTEN …, priority 2017, dated 2024)", "system": "A549 cells", "test": "Toxicity test with Cellomics Array Scan", "format": "cell-based, human", "method": "The toxicity of the zwitterionic QDQRs-17a and QDQRs-17b was tested using the Cellomics Array Scan. For the toxicity tests, A549 cells were plated on a 96-well plate and incubated with QDQR solutions in a concentration range of 25 to 500 nM. Cadmium chloride, which was used in a concentration range from 25 to 1,000 μM, was used as the positive control. The increase in the cadmium chloride concentration by a factor of 1,000 is due to the fact that a single QDQR of the tested samples contains about 8,200 cadmium atoms. Assuming that the totality of the nanoparticles dissolve and release the cadmium contained in them, the lowest concentration of 25 nM QDQRs used would correspond to a concentration of 205 μM cadmium chloride. After an incubation period of 16 hours, the cells were blended with a staining solution consisting of the cell nucleus dye Hoechst 33342 and the mitochondrial dye MitoTracker® Deep Red FM and then fixed with formaldehyde solution. The 96-well plates were then read out with the Cellomics Array Scan. A software was used to automatically determine the parameters number of cells, cell nucleus intensity and cell nucleus size using the intensity of the dye by Hoechst, and the transmembrane potential of the mitochondria on the basis of the mitochondrial dye. In addition, microscopic images of the cells were taken to control the number of cells and cell morphology.\nFor the toxicity tests, A549 cells were plated in culture medium on a 96-well plate (10,000 cells per well) and incubated overnight. When the medium had been sucked off, the samples to be tested (diluted with culture medium, 100 μL per well) were applied in different concentrations and incubated for 16 hours. The samples were then removed and the cells were mixed with 100 μL staining solution (final concentration: 75 nM MitoTracker® Deep Red and […] Hoechst 33342 in DMEM with 10% FCS) and incubated for a further 30 minutes. […] After 20 minutes, the fixing solution was sucked off and washed twice with DPBS before the samples were measured on the Cellomics Array Scan."}
{"smiles": "[Cl][Cd][Cl]", "note": "[cadmium chloride]", "values": [{"measurement": "morphological changes of the cells or cell nuclei (microscopic images)", "setting": "16 hours incubation", "value": "the number of cells decreases noticeably and they get globular"}, {"measurement": "concentration with toxic effect on the cells", "setting": "16 hours incubation, tested 25 to 1,000 μM", "value": "≥ 100", "unit": "µM"}, {"measurement": "number of cells per well, cell nucleus intensity and cell nucleus size", "setting": "16 hours, 100 μM or more", "value": "decreases significantly"}]}
